Test results as given in paper PMC2974656, “Selective killing of human immunodeficiency virus infected cells by non-nucleoside reverse transcriptase inhibitor-induced activation of HIV protease” (Retrovirology, 2010).

Assays:
[1] = Cytotoxicity on uninfected control cells, EGFP fluorescence per well; assay type: cell-based; conditions: human, MT4-CMV-EGFP control cells (uninfected); 4 days; mean ± SD; tested up to 10 μM; read-out: Cytotoxicity on MT4-CMV-EGFP control cells CC50
Protocol: (§1) The cytotoxicity of inhibitors was determined in parallel on MT4-CMV-EGFP control cells and on MT4-LTR-EGFP-IIIB virus producing cells, respectively.

[2] = tested on: HIV-1IIIB; assay: Direct antiviral activity: MT4-LTR-EGFP cells infected with HIV-1IIIB, EGFP fluorescence; assay type: cell-based; conditions: Human immunodeficiency virus 1, 72 h, read-out: Inhibition of HIV replication in vitro EC50
Protocol: After 3 days of incubation, infected cells were quantified by determination of total EGFP fluorescence per well based on microscopy and subsequent image analysis. Threshold values were determined from the average pixel value plus 6 standard deviations from the uninfected control wells, and the median threshold from all control wells on a plate was defined as baseline GFP expression. Intensity values for the sample wells were then determined by subtracting the background threshold from each pixel value obtained from the image of the respective well and calculating the sum of net pixel intensities. Percent inhibition was calculated as 100 * (1 - (Sample - CC)/(VC - CC)).

[3] = tested on: intracellular Gag processing by HIV PR; assay type: cell-based, HIV-1
Protocol: In previous studies, high concentrations of NNRTI (5 μM) were required to observe NNRTI mediated activation of intracellular HIV PR activity. […]. Towards this end, we developed a biochemical assay for gel independent quantitation of intracellular Gag processing by HIV PR in the context of a virus producing cell. We had previously shown that additional protein domains, consisting of small epitope tags or even the 27 kDa green fluorescent protein (EGFP), can be inserted between the MA and CA domains of the Gag and Gag-Pol polyproteins without affecting polyprotein production or processing by HIV PR [36]. Based on this, we designed a HIV reporter construct which contained a small N-terminal fragment ('alpha peptide') of Escherichia coli beta-galactosidase (β-Gal), flanked by two HIV PR recognition sites, between the MA and CA coding sequences of Gag (Figure 1A). […] This so called alpha complementation principle can be exploited for use in mammalian cells and has been employed for the establishment of various cell based biochemical assay systems. We reasoned that embedding of the small alpha peptide within the multi-domain polyproteins Gag or Gag-Pol, respectively, should impair its productive association with the omega subunit, while proteolytic release of the alpha peptide from the polyprotein by PR would allow the formation of enzymatically active β-Gal. This should allow us to monitor intracellular Gag and Gag-Pol processing through increased β-Gal activity.
Reconstituted β-Gal activity in cell lysates was measured by cleavage of the chromogenic substrate CPRG [42] as described in Methods.
The activity of β-Gal in cell lysates from transfected 293T cells was measured by enzymatic cleavage of the chromogenic β-Gal substrate chlorphenolred-β-D-galactopyranoside (CPRG, Roche; [42]). At 44 h post transfection, cells were briefly rinsed with PBS and suspended in reporter gene assay lysis buffer (Roche, 600 μl per 6-well dish) supplemented with a protease inhibitor mix (Roche). Cell suspensions were incubated for 10 min at room temperature and cell debris was subsequently removed by brief centrifugation. Five μl of supernatant were diluted in 96-well plates with 95 μl CPRG reaction buffer (50 mM potassium phosphate, pH 7.5, 1 mM MgCl2) and pre-warmed for 5 min to 37°C. 100 μl of pre-warmed reaction mix (100 μM CPRG in CPRG reaction buffer supplemented with protease inhibitor cocktail and 40 μM β-mercaptoethanol) were added and β-Gal mediated cleavage of CPRG was monitored by recording absorption at 592 nm every 2 min for 20 min at 37°C using a TECAN Safire multi-well reader. OD592 values were plotted over time and relative reaction rates (OD592/min) were determined from the initial linear velocities.

[4] = design: method as in PMID 12545140; conditions: under therapy; cited from earlier work
[5] = in vitro; assay type: cell-based; conditions: human, 4 days
Protocol: as §1

[6] = tested on: MT4-LTR-EGFP-IIIB HIV-1 producing cells; assay: in vitro; assay type: cell-based; conditions: summary of Table 1
Protocol: as §1

[7] = tested on: intracellular Gag processing by HIV PR; assay type: cell-based, HIV-1; conditions: 2 μM LPV, 48 h post transfection; DMSO control 0.109 min^-1
[8] = tested on: Gag processing by HIV PR; assay: Immunoblot analysis of Gag processing in transfected 293T cells; assay type: cell-based, HIV-1; conditions: 2 μM LPV
Protocol: 293T cells were seeded in 6-well plates and transfected with the indicated constructs using FuGene6 (Roche) according to the manufacturer's instructions. Cell lysates and tissue culture supernatants were harvested at 44-48 h post transfection. Virus was purified by ultracentrifugation through a 20% (w/w) sucrose cushion. Cell lysates, tissue culture supernatants or pelleted viral particles were separated by SDS-PAGE (17.5% acrylamide; acrylamide:bisacrylamide 200:1). Proteins were transferred to nitrocellulose by semi-dry blotting and detected using polyclonal antisera raised against recombinant HIV-1 CA or MA, or a commercial antiserum against β-Gal (Abcam, ab616), respectively.

Row | SMILES | CC50 at 4 days [1] | EC50 [2] | Gag processing or β-Gal activity, pCHIV.MAα variant with D25A mutation (PR-) ([3]; 5 μM EFV) | β-Gal activity, pCHIV.MAα 2PR (linked PR dimer) ([3]; 5 μM EFV) | β-Gal activity, pCHIV.MAα ([3]; 5 μM EFV, equal amounts of pCHIV.MAα and pCMVω) | Concentration required to achieve the maximal effect on β-Gal activity ([3]; 293T cells, 44 h post transfection) | Peak serum levels [4] | CC50 at 4 days ([5]; no DRV, mean ± SD, tested up to 10 μM, read-out: Cytotoxicity on MT4-LTR-EGFP-IIIB HIV-1 producing cells CC50) | CC50 at 4 days ([5]; CC50 on virus producing cells in the absence of DRV, one representative experiment (Fig. 3C), 4 parameter fit) | Cytotoxicity on MT4-LTR-EGFP-IIIB cells, in words [6] | Relative rate of CPRG cleavage [7] | Gagα processing as determined by immunoblot [8] | β-Gal activity in the cell lysates ([3]; 2 μM LPV, result in words)
1 | O=C1Nc2ccc(Cl)cc2[C@@](C#CC2CC2)(C(F)(F)F)O1 [EFV, efavirenz] | > 10000 nM | 1.9 ± 0.9 nM | no increase | No effect | significant increase | ~ 1 μM | micromolar range | 1710 ± 430 nM | 2440 nM | less cytotoxic | – | – | –
2 | Cc1cccc(C)c1OCC(=O)N[C@@H](Cc1ccccc1)[C@@H](O)C[C@H](Cc1ccccc1)NC(=O)[C@H](C(C)C)N1CCCNC1=O [LPV, lopinavir] | – | – | – | – | – | – | – | – | – | – | 0.054 min⁻¹ | nearly completely blocked | reduced, but did not abolish
